Reference: PubChem BioAssay (NCI)
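All cell lines were grown in 96-well plates and treated with compound for 48 hours. Abbreviation: GI50, concentration required for 50% inhibition of growth. TGI denotes the concentration required for complete inhibition of growth.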

Tests used:
Assay in all cases: inhibition of tumour cell growth, NCI panel, 48 h
A498 renal = tested on: A498 renal
SR leukemia = tested on: SR leukemia
LOX IMVI melanoma = tested on: LOX IMVI melanoma
HL-60(TB) leukemia = tested on: HL-60(TB) leukemia
RPMI-8226 leukemia = tested on: RPMI-8226 leukemia
A549 NSCLC = tested on: A549 NSCLC
UACC-257 melanoma = tested on: UACC-257 melanoma
ACHN renal = tested on: ACHN renal
MCF7 breast = tested on: MCF7 breast
NCI-H23 lung = tested on: NCI-H23 lung
KM12 colon = tested on: KM12 colon
SF-539 CNS = tested on: SF-539 CNS
K-562 leukemia = tested on: K-562 leukemia
MDA-MB-231 breast = tested on: MDA-MB-231 breast
HOP-62 NSCLC = tested on: HOP-62 NSCLC
U251 CNS = tested on: U251 CNS
SNB-75 CNS = tested on: SNB-75 CNS
786-0 renal = tested on: 786-0 renal
CCRF-CEM leukemia = tested on: CCRF-CEM leukemia
DU-145 prostate = tested on: DU-145 prostate
OVCAR-3 ovarian = tested on: OVCAR-3 ovarian
PC-3 prostate = tested on: PC-3 prostate
OVCAR-8 ovarian = tested on: OVCAR-8 ovarian
HS 578T breast = tested on: HS 578T breast
SF-268 CNS = tested on: SF-268 CNS
NCI-H460 lung = tested on: NCI-H460 lung
HCT-116 colon = tested on: HCT-116 colon
HCT-15 colon = tested on: HCT-15 colon
BT-549 breast = tested on: BT-549 breast
OVCAR-4 ovarian = tested on: OVCAR-4 ovarian
COLO 205 colon = tested on: COLO 205 colon
SK-MEL-5 melanoma = tested on: SK-MEL-5 melanoma
SW-620 colon = tested on: SW-620 colon
MDA-MB-435 = tested on: MDA-MB-435
M14 melanoma = tested on: M14 melanoma
SK-MEL-28 melanoma = tested on: SK-MEL-28 melanoma
NCI-H226 lung = tested on: NCI-H226 lung
OVCAR-5 ovarian = tested on: OVCAR-5 ovarian
IGROV1 ovarian = tested on: IGROV1 ovarian
SK-OV-3 ovarian = tested on: SK-OV-3 ovarian
MOLT-4 leukemia = tested on: MOLT-4 leukemia
T-47D breast = tested on: T-47D breast
NCI/ADR-RES ovarian = tested on: NCI/ADR-RES ovarian
NCI-H522 lung = tested on: NCI-H522 lung
SNB-19 CNS = tested on: SNB-19 CNS
UO-31 renal = tested on: UO-31 renal
HT29 colon = tested on: HT29 colon
CAKI-1 renal = tested on: CAKI-1 renal
SN12C renal = tested on: SN12C renal
SF-295 CNS = tested on: SF-295 CNS
SK-MEL-2 melanoma = tested on: SK-MEL-2 melanoma

In the case of `Cc1nc2cc(Nc3nc(Nc4ccc(F)cc4)nc(-c4cccs4)n3)ccc2n1Cc1ccccc1`, the GI50 (A498 renal) is reported as 5.41 µM, the TGI (A498 renal) is reported as 73.3 µM and the GI50 (SR leukemia) is reported as 2.56 µM. For the same compound, the TGI (SR leukemia) was 7.44 µM, the GI50 (LOX IMVI melanoma) was 2.36 µM and the TGI (LOX IMVI melanoma) was 5.85 µM. For the same compound, the GI50 (HL-60(TB) leukemia) was 2.46 µM, the TGI (HL-60(TB) leukemia) was 6.5 µM and the GI50 (RPMI-8226 leukemia) was 2.07 µM. It also gave a TGI (RPMI-8226 leukemia) of 5.91 µM, a GI50 (A549 NSCLC) of 2.98 µM and a TGI (A549 NSCLC) of 15.1 µM. The GI50 (UACC-257 melanoma) was 5.42 µM, the TGI (UACC-257 melanoma) was 30.1 µM and the GI50 (ACHN renal) was 3.86 µM. It also gave a TGI (ACHN renal) of 59.9 µM, a GI50 (MCF7 breast) of 2.15 µM and a TGI (MCF7 breast) of 7.91 µM. The GI50 (NCI-H23 lung) was 5.87 µM, the TGI (NCI-H23 lung) was 32.7 µM and the GI50 (KM12 colon) was 3.12 µM. It also gave a TGI (KM12 colon) of 16.7 µM, a GI50 (SF-539 CNS) of 3.27 µM and a TGI (SF-539 CNS) of 12.9 µM. The GI50 (K-562 leukemia) was 3.07 µM, the TGI (K-562 leukemia) was 20.6 µM and the GI50 (MDA-MB-231 breast) was 3.48 µM. It also gave a TGI (MDA-MB-231 breast) of 16.2 µM, a GI50 (HOP-62 NSCLC) of 8.45 µM and a TGI (HOP-62 NSCLC) of over 100 µM. It also gave a GI50 (U251 CNS) of 3.13 µM, a TGI (U251 CNS) of 13.7 µM and a GI50 (SNB-75 CNS) of 2.94 µM. For the same compound, the TGI (SNB-75 CNS) was over 100 µM, the GI50 (786-0 renal) was 3.07 µM and the TGI (786-0 renal) was 9.11 µM. For the same compound, the GI50 (CCRF-CEM leukemia) was 2.46 µM, the TGI (CCRF-CEM leukemia) was 7.21 µM and the GI50 (DU-145 prostate) was 7.7 µM. It also gave a TGI (DU-145 prostate) of over 100 µM, a GI50 (OVCAR-3 ovarian) of 4.87 µM and a TGI (OVCAR-3 ovarian) of 38.1 µM. It also gave a GI50 (PC-3 prostate) of 2.71 µM, a TGI (PC-3 prostate) of 52.2 µM and a GI50 (OVCAR-8 ovarian) of 3.54 µM. It also gave a TGI (OVCAR-8 ovarian) of 19 µM, a GI50 (HS 578T breast) of 3.81 µM and a TGI (HS 578T breast) of over 100 µM. For the same compound, the GI50 (SF-268 CNS) was 9.74 µM, the TGI (SF-268 CNS) was over 100 µM and the GI50 (NCI-H460 lung) was 3.78 µM. For the same compound, the TGI (NCI-H460 lung) was 20.4 µM, the GI50 (HCT-116 colon) was 3.35 µM and the TGI (HCT-116 colon) was 13.3 µM. It also gave a GI50 (HCT-15 colon) of 3.11 µM, a TGI (HCT-15 colon) of 16.3 µM and a GI50 (BT-549 breast) of 15.8 µM. The TGI (BT-549 breast) was 40.7 µM, the GI50 (OVCAR-4 ovarian) was 3.24 µM and the TGI (OVCAR-4 ovarian) was 34.8 µM. For the same compound, the GI50 (COLO 205 colon) was 3.7 µM, the TGI (COLO 205 colon) was 12.9 µM and the GI50 (SK-MEL-5 melanoma) was 4.18 µM. For the same compound, the TGI (SK-MEL-5 melanoma) was 17.3 µM, the GI50 (SW-620 colon) was 4.02 µM and the TGI (SW-620 colon) was 38.8 µM. It also gave a GI50 (MDA-MB-435) of 3.85 µM, a TGI (MDA-MB-435) of 35.2 µM and a GI50 (M14 melanoma) of 5.42 µM. It also gave a TGI (M14 melanoma) of 24.6 µM, a GI50 (SK-MEL-28 melanoma) of 9.47 µM and a TGI (SK-MEL-28 melanoma) of over 100 µM. It also gave a GI50 (NCI-H226 lung) of 8.23 µM, a TGI (NCI-H226 lung) of 36.5 µM and a GI50 (OVCAR-5 ovarian) of 9.62 µM. It also gave a TGI (OVCAR-5 ovarian) of 27.3 µM, a GI50 (IGROV1 ovarian) of 3.62 µM and a TGI (IGROV1 ovarian) of 12.9 µM. It also gave a GI50 (SK-OV-3 ovarian) of 33.4 µM, a TGI (SK-OV-3 ovarian) of over 100 µM and a GI50 (MOLT-4 leukemia) of 2.97 µM. The TGI (MOLT-4 leukemia) was 9.3 µM, the GI50 (T-47D breast) was 2.6 µM and the TGI (T-47D breast) was 9.33 µM. For the same compound, the GI50 (NCI/ADR-RES ovarian) was 3.66 µM, the TGI (NCI/ADR-RES ovarian) was 32.1 µM and the GI50 (NCI-H522 lung) was 2.66 µM. It also gave a TGI (NCI-H522 lung) of 9.16 µM, a GI50 (SNB-19 CNS) of 5.29 µM and a TGI (SNB-19 CNS) of over 100 µM. It also gave a GI50 (UO-31 renal) of 3.75 µM, a TGI (UO-31 renal) of 17.5 µM and a GI50 (HT29 colon) of 2.12 µM. The TGI (HT29 colon) was 4.44 µM, the GI50 (CAKI-1 renal) was 5.45 µM and the TGI (CAKI-1 renal) was over 100 µM. The GI50 (SN12C renal) was 5.73 µM, the TGI (SN12C renal) was 58.1 µM and the GI50 (SF-295 CNS) was 3.61 µM. The TGI (SF-295 CNS) was 16.7 µM, the GI50 (SK-MEL-2 melanoma) was 2.36 µM and the TGI (SK-MEL-2 melanoma) was 5.44 µM.
